Experimental findings from patent publication US20260285872A1, “COMPOUNDS AND METHODS FOR DEGRADING GSPT1” (priority 2023, published 2026) are described below.

Like-named read-outs stand apart in the source and are kept apart here. Where only a bound is given, the exact number is not on record here.

One experiment concerns the target GSPT1 (Homo sapiens, UniProt P15170+Q96SW2). Format: cell-based. Here is the method: GSPT1_HiBIT_HEK293 cells were culture in DMEM medium with 10% FBS under standard tissue culture conditions. […] GSPT1 level was determined in along with the Nano-Glo HiBiT Lytic Detection system [Promega N3050] with final concentration of 1×. The luminescence was normalized to that of DMSO-treated samples. DC50 values were obtained using three-parameter non-linear regressions using Prism (GraphPad).

The test system of a further experiment is NCI-H1155 cells. Kind of experiment: NSCLC cell viability, CellTiter-Glo, NCI-H1155 cells. Format: cell-based. The note with it: Homo sapiens; NCI-H1155 cells, CellTiter-Glo, 72 hours of treatment; read-out: Cell viability classification (NCI-H1155).
Setting [1] is: read-out: GSPT1 degradation classification; DC50, GSPT1_HiBIT_HEK293 cells, 16 hours, Nano-Glo HiBiT Lytic Detection.
Setting [2] is: DC50, GSPT1_HiBIT_HEK293 cells, 16 hours, Nano-Glo HiBiT Lytic Detection; read-out: GSPT1 degradation classification.

Sequence of GSPT1 (P15170 whole entry): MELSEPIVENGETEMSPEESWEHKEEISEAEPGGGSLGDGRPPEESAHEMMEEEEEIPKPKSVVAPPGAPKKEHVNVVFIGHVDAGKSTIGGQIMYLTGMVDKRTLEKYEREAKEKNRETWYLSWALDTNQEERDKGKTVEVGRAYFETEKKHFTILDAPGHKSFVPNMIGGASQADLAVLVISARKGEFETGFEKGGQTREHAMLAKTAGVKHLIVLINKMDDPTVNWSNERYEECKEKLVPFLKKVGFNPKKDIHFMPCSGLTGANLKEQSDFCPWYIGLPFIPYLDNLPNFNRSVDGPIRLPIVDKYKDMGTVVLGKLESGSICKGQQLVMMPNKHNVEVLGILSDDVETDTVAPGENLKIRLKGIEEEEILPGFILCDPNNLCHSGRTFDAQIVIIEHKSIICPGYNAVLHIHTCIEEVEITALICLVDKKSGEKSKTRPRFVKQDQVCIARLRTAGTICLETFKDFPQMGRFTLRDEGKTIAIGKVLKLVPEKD
Sequence of GSPT1 (Q96SW2 whole entry): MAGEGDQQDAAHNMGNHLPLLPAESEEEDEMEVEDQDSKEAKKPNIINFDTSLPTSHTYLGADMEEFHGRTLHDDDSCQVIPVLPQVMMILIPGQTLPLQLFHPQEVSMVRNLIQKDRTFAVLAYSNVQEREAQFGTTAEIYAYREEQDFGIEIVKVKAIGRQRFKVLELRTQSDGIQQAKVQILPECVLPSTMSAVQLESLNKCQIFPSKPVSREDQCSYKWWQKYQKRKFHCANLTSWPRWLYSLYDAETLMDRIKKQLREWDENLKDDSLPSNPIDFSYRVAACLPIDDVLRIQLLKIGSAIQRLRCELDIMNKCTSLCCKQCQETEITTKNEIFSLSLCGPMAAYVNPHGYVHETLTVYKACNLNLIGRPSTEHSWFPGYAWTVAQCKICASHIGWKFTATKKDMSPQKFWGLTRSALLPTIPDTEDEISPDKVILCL
Sequence of GSPT1 (Q16531 whole entry partner): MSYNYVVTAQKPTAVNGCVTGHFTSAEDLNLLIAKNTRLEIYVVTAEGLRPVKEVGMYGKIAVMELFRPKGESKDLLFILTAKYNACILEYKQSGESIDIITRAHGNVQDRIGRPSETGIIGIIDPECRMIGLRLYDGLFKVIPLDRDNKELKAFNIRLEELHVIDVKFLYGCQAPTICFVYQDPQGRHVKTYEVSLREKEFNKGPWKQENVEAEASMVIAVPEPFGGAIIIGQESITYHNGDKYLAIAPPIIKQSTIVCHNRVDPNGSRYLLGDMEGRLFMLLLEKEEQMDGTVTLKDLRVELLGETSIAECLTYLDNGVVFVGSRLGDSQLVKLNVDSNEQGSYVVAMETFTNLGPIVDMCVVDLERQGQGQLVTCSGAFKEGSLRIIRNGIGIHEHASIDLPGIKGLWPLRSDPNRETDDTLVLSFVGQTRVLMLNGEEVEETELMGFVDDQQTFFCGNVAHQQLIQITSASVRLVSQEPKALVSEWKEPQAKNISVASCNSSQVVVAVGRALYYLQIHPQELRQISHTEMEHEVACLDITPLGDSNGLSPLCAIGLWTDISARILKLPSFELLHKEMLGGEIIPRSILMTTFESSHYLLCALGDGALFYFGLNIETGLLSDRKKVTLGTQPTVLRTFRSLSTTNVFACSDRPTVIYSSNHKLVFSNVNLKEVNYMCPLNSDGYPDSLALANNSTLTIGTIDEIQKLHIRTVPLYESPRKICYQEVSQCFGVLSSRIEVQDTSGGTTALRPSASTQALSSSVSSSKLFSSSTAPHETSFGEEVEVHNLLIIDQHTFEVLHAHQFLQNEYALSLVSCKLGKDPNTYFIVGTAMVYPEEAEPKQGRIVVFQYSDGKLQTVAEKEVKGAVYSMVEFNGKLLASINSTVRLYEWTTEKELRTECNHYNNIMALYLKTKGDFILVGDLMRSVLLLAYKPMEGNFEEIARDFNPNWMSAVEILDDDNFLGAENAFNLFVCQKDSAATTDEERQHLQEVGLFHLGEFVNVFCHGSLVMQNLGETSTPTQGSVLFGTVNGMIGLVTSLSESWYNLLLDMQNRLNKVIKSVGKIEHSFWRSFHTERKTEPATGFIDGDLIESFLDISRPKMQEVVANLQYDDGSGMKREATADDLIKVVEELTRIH

Consider `O=C1CCC(N2Cc3cc(C(=O)N4Cc5cccc(Cl)c5C4)ccc3C2=O)C(=O)N1` (stereo not shown) [Example 112, 3-(5-(4-chloroisoindoline-2-carbonyl)-1-oxoisoindolin-2-yl)piperidine-2,6-dione], for which the DC50 on GSPT1 (setting [1]) was less than 100 nM. Moreover, the IC50 in the experiment on NCI-H1155 cells is less than 10 nM.
In the same order, the values of `Cc1cccc2c1CN(C(=O)c1ccc3c(c1)CN(C1CCC(=O)NC1=O)C3=O)C2` (stereo not shown) [Example 130, 3-(5-(4-methylisoindoline-2-carbonyl)-1-oxoisoindolin-2-yl)piperidine-2,6-dione] are less than 100 nM and 10 to 100 nM.
The corresponding values for `C[C@@H]1CN(C(=O)c2ccc3c(c2)CN(C2CCC(=O)NC2=O)C3=O)c2cc(F)ccc21` (stereo partly drawn) [Example 133, 3-(5-((S)-6-fluoro-3-methylindoline-1-carbonyl)-1-oxoisoindolin-2-yl)piperidine-2,6-dione] are less than 100 nM and less than 10 nM.
Turning to `O=C1CCC(c2nc3ccc(C(=O)N4Cc5cccc(F)c5C4)cc3o2)C(=O)N1` (stereo not shown) [Example 137, 3-(6-(4-fluoroisoindoline-2-carbonyl)benzo[d]oxazol-2-yl)piperidine-2,6-dione], the DC50 on GSPT1 (setting [2]) was 300 to 1000 nM. Also, the IC50 with NCI-H1155 cells is 100 to 1000 nM.
As for `O=C1CCC(N2Cc3cc(C(=O)N4CC5(CC(C(F)(F)F)C5)C4)ccc3C2=O)C(=O)N1` (stereo not shown) [Example 145, 3-(1-oxo-5-(6-(trifluoromethyl)-2-azaspiro[3.3]heptane-2-carbonyl)isoindolin-2-yl)piperidine-2,6-dione], the DC50 at GSPT1 (setting [1]) is greater than 1000 nM. In addition, the IC50 in the experiment on NCI-H1155 cells fell in the range of 10 to 100 nM.
The corresponding values for `O=C1CCC(N2Cc3cc(C(=O)N4Cc5c(F)ccc(F)c5C4)ccc3C2=O)C(=O)N1` (stereo not shown) [Example 147, 3-(5-(4,7-difluoroisoindoline-2-carbonyl)-1-oxoisoindolin-2-yl)piperidine-2,6-dione] are less than 100 nM and 10 to 100 nM.
In the case of `O=C1CCC(c2nc3ccc(C(=O)N4Cc5cccc(Cl)c5C4)cc3o2)C(=O)N1` (stereo not shown) [Example 158, 3-(6-(4-chloroisoindoline-2-carbonyl)benzo[d]oxazol-2-yl)piperidine-2,6-dione], the DC50 at GSPT1 (setting [2]) lay in the range of 100 to 300 nM. For the same compound, in the experiment on NCI-H1155 cells, the IC50 is 10 to 100 nM.
In the same order, the values of `Cc1cccc2c1CN(C(=O)c1ccc3nc(C4CCC(=O)NC4=O)oc3c1)C2` (stereo not shown) [Example 161, 3-(6-(4-methylisoindoline-2-carbonyl)benzo[d]oxazol-2-yl)piperidine-2,6-dione] are 100 to 300 nM and 10 to 100 nM.
The corresponding values for `O=C1CCC(c2nc3cc(COC(=O)Nc4cc(OC(F)(F)F)ccc4F)ccc3o2)C(=O)N1` (stereo not shown) [Example 164, (2-(2,6-dioxopiperidin-3-yl)benzo[d]oxazol-5-yl)methyl (2-fluoro-5-(trifluoromethoxy)phenyl)carbamate] are 100 to 300 nM and 10 to 100 nM.
With `O=C1CCC(N2Cc3cc(C(=O)N4CC5(C=C(c6ccc(F)cc6)C5)C4)ccc3C2=O)C(=O)N1` (stereo not shown) [Example 169, 3-(5-(6-(4-fluorophenyl)-2-azaspiro[3.3]hept-5-ene-2-carbonyl)-1-oxoisoindolin-2-yl)piperidine-2,6-dione], at GSPT1 (setting [1]), the DC50 was greater than 1000 nM. Further, the IC50 with NCI-H1155 cells is 10 to 100 nM.
On to `O=C1CCC(c2nc3ccc(C(=O)N4Cc5cccc(C(F)(F)F)c5C4)cc3o2)C(=O)N1` (stereo not shown) [Example 174, 3-(6-(4-(trifluoromethyl)isoindoline-2-carbonyl)benzo[d]oxazol-2-yl)piperidine-2,6-dione], for which the DC50 at GSPT1 (setting [2]) lay in the range of 300 to 1000 nM. Further, the IC50 with NCI-H1155 cells is 100 to 1000 nM.
Regarding `O=C1CCC(c2nc3ccc(C(=O)N4Cc5cc(F)cc(F)c5C4)cc3o2)C(=O)N1` (stereo not shown) [Example 176, 3-(6-(4,6-difluoroisoindoline-2-carbonyl)benzo[d]oxazol-2-yl)piperidine-2,6-dione], the DC50 on GSPT1 (setting [2]) was in the range of 300 to 1000 nM. For the same compound, the IC50 in the experiment with NCI-H1155 cells was in the range of 100 to 1000 nM.
In the same order, the values of `O=C1CCC(c2nc3ccc(C(=O)N4Cc5cc(F)cc(Cl)c5C4)cc3o2)C(=O)N1` (stereo not shown) [Example 178, 3-(6-(4-chloro-6-fluoroisoindoline-2-carbonyl)benzo[d]oxazol-2-yl)piperidine-2,6-dione] are 300 to 1000 nM and 10 to 100 nM.
For `O=C1CCC(N2Cc3cc(C(=O)N4Cc5cccc(F)c5C45CC5)ccc3C2=O)C(=O)N1` (stereo not shown) [Example 182, 3-(5-(7′-fluorospiro[cyclopropane-1,1′-isoindoline]-2′-carbonyl)-1-oxoisoindolin-2-yl)piperidine-2,6-dione], on GSPT1 (setting [1]), the DC50 was less than 100 nM. For the same compound, the IC50 in the experiment on NCI-H1155 cells is less than 10 nM.
For `O=C1CCC(N2Cc3cc(C(=O)N4CC5(CCC(OC(F)(F)F)CC5)C4)ccc3C2=O)C(=O)N1` (stereo not shown) [Example 184, 3-(1-oxo-5-(7-(trifluoromethoxy)-2-azaspiro[3.5]nonane-2-carbonyl)isoindolin-2-yl)piperidine-2,6-dione], on GSPT1 (setting [2]), the DC50 was in the range of 100 to 300 nM. Further, in the experiment with NCI-H1155 cells, the IC50 was 10 to 100 nM.
As for `O=C1CCC(N2Cc3cc(C(=O)N4CCC5(C4)CC(F)(F)C5)ccc3C2=O)C(=O)N1` (stereo not shown) [Example 189, 3-(5-(2,2-difluoro-6-azaspiro[3.4]octane-6-carbonyl)-1-oxoisoindolin-2-yl)piperidine-2,6-dione], the DC50 on GSPT1 (setting [1]) is greater than 1000 nM. Moreover, in the experiment on NCI-H1155 cells, the IC50 is 100 to 1000 nM.
With `O=C1CCC(N2Cc3cc(C(=O)N4CC5(CC(c6ccccc6F)C5)C4)ccc3C2=O)C(=O)N1` (stereo not shown) [Example 196, 3-(5-(6-(2-fluorophenyl)-2-azaspiro[3.3]heptane-2-carbonyl)-1-oxoisoindolin-2-yl)piperidine-2,6-dione], the DC50 at GSPT1 (setting [2]) was less than 100 nM. The IC50 in the experiment on NCI-H1155 cells lay in the range of 10 to 100 nM.
For the compound `O=C1CCC(c2nc3ccc(C(=O)N4Cc5ccc(F)c(Cl)c5C4)cc3o2)C(=O)N1` (stereo not shown) [Example 197, 3-(6-(4-chloro-5-fluoroisoindoline-2-carbonyl)benzo[d]oxazol-2-yl)piperidine-2,6-dione], the DC50 on GSPT1 (setting [2]) was greater than 1000 nM. For the same compound, the IC50 in the experiment on NCI-H1155 cells lay within 100 to 1000 nM.
The corresponding values for `O=C1CCC(c2nc3ccc(C(=O)N4CC5(CCC(F)(F)C5)C4)cc3o2)C(=O)N1` (stereo not shown) [Example 198, 3-(6-(6,6-difluoro-2-azaspiro[3.4]octane-2-carbonyl)benzo[d]oxazol-2-yl)piperidine-2,6-dione] are greater than 1000 nM and greater than 1000 nM.
Turning to `Cc1cc(F)c2c(c1)CN(C(=O)c1ccc3nc(C4CCC(=O)NC4=O)oc3c1)C2` (stereo not shown) [Example 199, 3-(6-(4-fluoro-6-methylisoindoline-2-carbonyl)benzo[d]oxazol-2-yl)piperidine-2,6-dione], the DC50 at GSPT1 (setting [2]) was greater than 1000 nM. The IC50 in the experiment on NCI-H1155 cells fell in the range of 100 to 1000 nM.
In the same order, the values of `N#Cc1cc(F)c2c(c1)CN(C(=O)c1ccc3nc(C4CCC(=O)NC4=O)oc3c1)C2` (stereo not shown) [Example 200, 2-(2-(2,6-dioxopiperidin-3-yl)benzo[d]oxazole-6-carbonyl)-7-fluoroisoindoline-5-carbonitrile] are greater than 1000 nM and 100 to 1000 nM.
Take `O=C1CCC(N2Cc3cc(C(=O)N4CCC5(CCC(F)(F)C5)C4)ccc3C2=O)C(=O)N1` (stereo not shown) [Example 201, 3-(5-(7,7-difluoro-2-azaspiro[4.4]nonane-2-carbonyl)-1-oxoisoindolin-2-yl)piperidine-2,6-dione]: at GSPT1 (setting [1]), the DC50 was greater than 1000 nM. Moreover, in the experiment on NCI-H1155 cells, the IC50 is 100 to 1000 nM.
The corresponding values for `O=C1CCC(N2Cc3cc(C(=O)N4CC(F)(c5ccccc5F)C4)ccc3C2=O)C(=O)N1` (stereo not shown) [Example 202, 3-(5-(3-fluoro-3-(2-fluorophenyl)azetidine-1-carbonyl)-1-oxoisoindolin-2-yl)piperidine-2,6-dione] are 100 to 300 nM and 10 to 100 nM.
